# Assay results reported in patent US8399480B2, “Hydroxymethyl pyrrolidines as beta 3 adrenergic receptor agonists” (Merck Sharp & Dohme Corp., priority 2008, dated 2013).
# Biological target: T1, human β3 adrenergic receptor (Homo sapiens, UniProt P13945)
# T1 construct: expressed in transfected cells; host or cells: Chinese hamster ovary (CHO) cells, stably transfected
# Assay: Functional assay: cAMP production (LANCE TR-FRET) in CHO cells stably transfected with cloned β3 adrenergic receptor
# Format: cell-based
# Conditions: Table 4; human β3 functional activity; read-out: Human β Binding
# Procedure: Chinese hamster ovary (CHO) cells, stably transfected with the cloned β-adrenergic receptor (β1, β2 or β3) are harvested after 3 days of subculturing. Harvesting of cells is done with Enzyme-free Dissociation Media (Specialty Media). Cells are then counted and resuspended in assay buffer (Hank's Balanced salt solution supplemented with 5 mM HEPES, 0.1% BSA) containing a phosphodiesterase inhibitor (IBMX, 0.6 mM). The reaction is initiated by mixing 6,000 cells in 6 μL with 6 μL Alexa Fluor labeled cAMP antibody (LANCE™ kit) which is then added to an assay well containing 12 μL of compound (diluted in assay buffer to 2× final concentration). The reaction proceeds for 30 min at room temperature and is terminated by the addition of 24 μL detection buffer (LANCE™ kit). The assay plate is then incubated for 1 h at room temperature and time-resolved fluorescence measured on a Perkin Elmer Envision reader or equivalent. The unknown cAMP level is determined by comparing fluorescence levels to a cAMP standard curve.
# The non-selective, full agonist β-adrenergic ligand isoproterenol is used at all three receptors to determine maximal stimulation. […] Data are analyzed using Microsoft Excel and Graphpad Prism or an internally developed data analysis software package.
# T1 sequence (P13945 whole entry): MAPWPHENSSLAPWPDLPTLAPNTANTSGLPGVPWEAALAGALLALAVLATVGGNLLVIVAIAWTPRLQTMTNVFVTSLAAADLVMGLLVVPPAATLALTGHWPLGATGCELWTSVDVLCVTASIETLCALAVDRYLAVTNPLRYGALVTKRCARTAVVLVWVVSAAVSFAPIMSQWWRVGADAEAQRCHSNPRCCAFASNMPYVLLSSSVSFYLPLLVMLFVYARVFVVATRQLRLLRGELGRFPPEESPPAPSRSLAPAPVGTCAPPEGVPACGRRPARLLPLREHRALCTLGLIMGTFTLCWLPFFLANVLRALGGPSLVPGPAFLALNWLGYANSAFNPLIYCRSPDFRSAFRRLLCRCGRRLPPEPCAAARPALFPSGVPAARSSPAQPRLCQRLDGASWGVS
row,EC50 [nM],Compound
1,1 to 10,Cc1nonc1CC(=O)Nc1ccc(C[C@@H]2CC[C@H]([C@H](O)c3ccccc3)N2)cc1 [Example 82]
2,1 to 10,Cc1cn(CC(=O)Nc2ccc(C[C@@H]3CC[C@H]([C@H](O)c4ccccc4)N3)cc2)nn1 [Example 79]
3,1 to 10,O=C(CN1CCCOC1=O)Nc1ccc(C[C@@H]2CC[C@H]([C@H](O)c3ccccc3)N2)cc1 [Example 98]
4,11 to 100,O=C(Cc1n[nH]c(=O)[nH]1)Nc1ccc(C[C@@H]2CC[C@H]([C@H](O)c3ccccc3)N2)cc1 [Example 68]
5,11 to 100,Cc1ccc(OCC(=O)Nc2ccc(C[C@@H]3CC[C@H]([C@H](O)c4ccccc4)N3)cc2)nn1 [Example 95]
6,1 to 10,O=C(Cn1c(=O)[nH]c(=O)c2ccccc21)Nc1ccc(C[C@@H]2CC[C@H]([C@H](O)c3ccccc3)N2)cc1 [Example 57]
7,11 to 100,CN1CCCN(CC(=O)Nc2ccc(C[C@@H]3CC[C@H]([C@H](O)c4ccccc4)N3)cc2)C1=O [Example 99]
8,101 to 1000,O=C(Cn1ccc(=O)nc1)Nc1ccc(C[C@@H]2CC[C@H]([C@H](O)c3ccccc3)N2)cc1 [Example 66]
9,1 to 10,O=C(CN1CCCCC1=O)Nc1ccc(C[C@@H]2CC[C@H]([C@H](O)c3ccccc3)N2)cc1 [Example 89]
10,11 to 100,Cc1csc(CC(=O)Nc2ccc(C[C@@H]3CC[C@H]([C@H](O)c4ccccc4)N3)cc2)n1 [Example 8]
11,11 to 100,O=C(Cc1nnc(-c2ccc(Cl)cc2)[nH]1)Nc1ccc(C[C@@H]2CC[C@H]([C@H](O)c3ccccc3)N2)cc1 [Example 23]
12,11 to 100,O=C(Cn1cnnn1)Nc1ccc(C[C@@H]2CC[C@H]([C@H](O)c3ccccc3)N2)cc1 [Example 77]
13,11 to 100,O=C(Cc1ccccn1)Nc1ccc(C[C@@H]2CC[C@H]([C@H](O)c3ccccc3)N2)cc1 [Example 43]
14,101 to 1000,O=C(Nc1ccc(C[C@@H]2CC[C@H]([C@H](O)c3ccccc3)N2)cc1)c1ccccc1-c1nc2ccccc2s1 [Example 14]
15,1 to 10,O=C(Cn1[nH]c(=O)c2ccccc2c1=O)Nc1ccc(C[C@@H]2CC[C@H]([C@H](O)c3ccccc3)N2)cc1 [Example 53]
16,1 to 10,O=C(Cn1ccc(=O)[nH]c1=O)Nc1ccc(C[C@@H]2CC[C@H]([C@H](O)c3ccccc3)N2)cc1 [Example 63]
17,101 to 1000,O=C(Nc1ccc(C[C@@H]2CC[C@H]([C@H](O)c3ccccc3)N2)cc1)c1ccccc1CCc1ccccc1 [Example 30]
18,11 to 100,O=C(Cc1nnc(Cc2ccccc2)[nH]1)Nc1ccc(C[C@@H]2CC[C@H]([C@H](O)c3ccccc3)N2)cc1 [Example 33]
19,101 to 1000,Cc1nc(C)c(CC(=O)Nc2ccc(C[C@@H]3CC[C@H]([C@H](O)c4ccccc4)N3)cc2)s1 [Example 9]
20,11 to 100,O=C(Cn1ccncc1=O)Nc1ccc(C[C@@H]2CC[C@H]([C@H](O)c3ccccc3)N2)cc1 [Example 67]
21,1 to 10,O=C(Cn1cnc2ccccc2c1=O)Nc1ccc(C[C@@H]2CC[C@H]([C@H](O)c3ccccc3)N2)cc1 [Example 16]

# Same assay, conditions: Table 5; read-out: Human β3 Functional
row,Compound,EC50 [nM]
1,"CC(C(=O)Nc1ccc(C[C@@H]2CC[C@H]([C@H](O)c3ccccc3)N2)cc1)n1ncccc1=O (single isomer, unassigned) [Example 162]",1 to 10
2,"Cc1nnc2n1CCC2C(=O)Nc1ccc(C[C@@H]2CC[C@H]([C@H](O)c3ccccc3)N2)cc1 (single isomer, unassigned) [Example 124]",1 to 10
3,"O=C(Nc1ccc(C[C@@H]2CC[C@H]([C@H](O)c3ccccc3)N2)cc1)C1CCc2cn[nH]c21 (single isomer, unassigned) [Example 136]",11 to 100
4,"Cc1nnc2n1CCCC2C(=O)Nc1ccc(C[C@@H]2CC[C@H]([C@H](O)c3ccccc3)N2)cc1 (single isomer, unassigned) [Example 150]",1 to 10
5,"O=C(Nc1ccc(C[C@@H]2CC[C@H]([C@H](O)c3ccccc3)N2)cc1)C1CCc2cccnc21 (single isomer, unassigned) [Example 133]",< 1
6,"Cc1n[nH]c2c1CCC2C(=O)Nc1ccc(C[C@@H]2CC[C@H]([C@H](O)c3ccccc3)N2)cc1 (single isomer, unassigned) [Example 139]",1 to 10

# Continued, values first:
row,EC50 [nM],Compound
1,1 to 10,"CC(C(=O)Nc1ccc(C[C@@H]2CC[C@H]([C@H](O)c3ccccc3)N2)cc1)c1cnccn1 (single isomer, unassigned) [Example 207]"
2,1 to 10,"CC(C(=O)Nc1ccc(C[C@@H]2CC[C@H]([C@H](O)c3ccccc3)N2)cc1)c1ccccn1 (single isomer, unassigned) [Example 204]"
3,1 to 10,"CC(C(=O)Nc1ccc(C[C@@H]2CC[C@H]([C@H](O)c3ccccc3)N2)cc1)n1nccn1 (single isomer, unassigned) [Example 179]"
4,1 to 10,"CC(C(=O)Nc1ccc(C[C@@H]2CC[C@H]([C@H](O)c3ccccc3)N2)cc1)n1ccccc1=O (single isomer, unassigned) [Example 202]"
5,11 to 100,"Cc1cc(C(C)C(=O)Nc2ccc(C[C@@H]3CC[C@H]([C@H](O)c4ccccc4)N3)cc2)[nH]n1 (single isomer, unassigned) [Example 184]"
6,1 to 10,"CC(C(=O)Nc1ccc(C[C@@H]2CC[C@H]([C@H](O)c3ccccc3)N2)cc1)c1cnccn1 (single isomer, unassigned) [Example 206]"
7,1 to 10,"CC(C(=O)Nc1ccc(C[C@@H]2CC[C@H]([C@H](O)c3ccccc3)N2)cc1)n1cnnn1 (single isomer, unassigned) [Example 173]"
8,1 to 10,"CC(C(=O)Nc1ccc(C[C@@H]2CC[C@H]([C@H](O)c3ccccc3)N2)cc1)N1CCOC1=O (single isomer, unassigned) [Example 208]"
9,1 to 10,"CC(C(=O)Nc1ccc(C[C@@H]2CC[C@H]([C@H](O)c3ccccc3)N2)cc1)n1nncc1C(=O)O (single isomer, unassigned) [Example 197]"
10,1 to 10,"CCC(C(=O)Nc1ccc(C[C@@H]2CC[C@H]([C@H](O)c3ccccc3)N2)cc1)n1cccn1 (single isomer, unassigned) [Example 219]"
11,1 to 10,"COCCC(C(=O)Nc1ccc(C[C@@H]2CC[C@H]([C@H](O)c3ccccc3)N2)cc1)n1cccn1 (single isomer, unassigned) [Example 223]"
12,101 to 1000,"CC(Oc1cccnn1)C(=O)Nc1ccc(C[C@@H]2CC[C@H]([C@H](O)c3ccccc3)N2)cc1 (single isomer, unassigned) [Example 214]"
13,11 to 100,"CC(Oc1cccnn1)C(=O)Nc1ccc(C[C@@H]2CC[C@H]([C@H](O)c3ccccc3)N2)cc1 (single isomer, unassigned) [Example 215]"
14,11 to 100,"CC(C(=O)Nc1ccc(C[C@@H]2CC[C@H]([C@H](O)c3ccccc3)N2)cc1)n1cc(C(=O)O)nn1 (single isomer, unassigned) [Example 190]"
15,101 to 1000,"O=C(Nc1ccc(C[C@@H]2CC[C@H]([C@H](O)c3ccccc3)N2)cc1)C1CCCn2ccnc21 (single isomer, unassigned) [Example 155]"
16,1 to 10,"Cc1ccc(=O)n(C(C)C(=O)Nc2ccc(C[C@@H]3CC[C@H]([C@H](O)c4ccccc4)N3)cc2)n1 (single isomer, unassigned) [Example 165]"

# Same assay, conditions: Table 6; read-out: Human β3 Functional
row,EC50 [nM],Compound
1,101 to 1000,"Nc1nc2c(s1)CCCC2C(=O)Nc1ccc(CC2CCC(C(O)c3ccccc3)N2)cc1 (single isomer, unassigned) [Example 227]"

# Same assay, conditions: Table 7; β3AR-cAMP; read-out: Human β3 Functional
row,EC50 [nM],Compound
1,11 to 100,O=S(=O)(Nc1ccc(C[C@@H]2CC[C@H]([C@H](O)c3ccccc3)N2)cc1)c1ccc2ncsc2c1 [Example 239]
2,1000 to 3000,Cc1nn(C)c(Cl)c1S(=O)(=O)Nc1ccc(C[C@@H]2CC[C@H]([C@H](O)c3ccccc3)N2)cc1 [Example 247]

# Same assay, conditions: Table 8; read-out: Human β3 Functional
row,EC50 [nM],Compound
1,101 to 1000,O=C1OC2(CCN(C(=O)Nc3ccc(C[C@@H]4CC[C@H]([C@H](O)c5ccccc5)N4)cc3)CC2)c2cnccc21 [Example 259]

# Same assay, conditions: Table 9; read-out: Human β^3 Functional
row,EC50 [nM],Compound
1,11 to 100,CC(NS(=O)(=O)Cc1ccccc1)C(=O)Nc1ccc(C[C@@H]2CC[C@H]([C@H](O)c3ccccc3)N2)cc1 (stereo partly drawn) [Example 273]
2,101 to 1000,CC(C(=O)Nc1ccc(C[C@@H]2CC[C@H]([C@H](O)c3ccccc3)N2)cc1)N(C)C(=O)c1ccccn1 (stereo partly drawn) [Example 265]

# Same assay, conditions: Table 10; β3AR-cAMP; read-out: Human β3 Functional
row,EC50 [nM],Compound
1,< 1,O=C(Nc1ccc(CC2CCC(C(O)c3cccc(F)c3)N2)cc1)C1CCc2scnc21 (stereo not drawn) [Example 279]

# Same assay, conditions: Table 11; read-out: Human β3 Functional
row,EC50 [nM],Compound
1,11 to 100,"CC(C(=O)Nc1ccc(CC2CCC(C(O)c3ccc(F)cc3)N2)cc1)c1cscn1 (single isomer, unassigned) [Example 285]"

# Same assay, conditions: given as a range; cAMP, CHO cells; read-out: human β3 functional activity
row,EC50 [nM],Compound
1,< 1,"C[C@H](NC(=O)c1ccccc1F)C(=O)Nc1ccc(C[C@@H]2CC[C@H]([C@H](O)c3ccccc3)N2)cc1 [Example 263, 2-Fluoro-N-((1S)-2-{[4-({(2S,5R)-5-[(R)-hydroxy(phenyl)methyl]pyrrolidin-2-yl}methyl)phenyl]amino}-1-methyl-2-oxoethyl)benzamide]"
2,11 to 100,"CC(C(=O)Nc1ccc(C[C@@H]2CC[C@H]([C@H](O)c3cccc(F)c3)N2)cc1)c1cscn1 (single isomer, unassigned) [Example 274]"

# Same assay, conditions: human β3 functional activity, shown as ranges; Table 13; read-out: Human β3 Functional
row,EC50 [nM],Compound
1,< 1,"O=C(Nc1ccc(CC2CCC(C(O)c3cccc(Cl)c3)N2)cc1)C1CCc2sc(Br)nc21 (single isomer, unassigned) [Example 298]"
